Source: PubChem BioAssay (NCI)
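Interpolation was linear, between the two tested concentrations surrounding the appropriate level; five concentrations were tested over 48 hours in 96-well plates. GI50: concentration for 50% inhibition of growth. TGI marks complete inhibition of growth.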

Columns and labels:
Test in all cases: inhibition of tumour cell growth, NCI panel, 48 h
[1] = test system: U251 CNS
[2] = test system: HCC-2998 colon
[3] = test system: ACHN renal
[4] = test system: NCI-H460 lung
[5] = test system: UACC-257 melanoma
[6] = test system: HCT-116 colon
[7] = test system: SN12C renal
[8] = test system: SK-MEL-2 melanoma
[9] = test system: NCI-H226 lung
[10] = test system: SF-295 CNS

For COC(=O)CCC(=O)CC(=O)C(=O)Nc1ccc(F)cc1, the TGI [1] was over 100 µM, the TGI [2] was over 100 µM and the TGI [3] was over 100 µM. For the same compound, the TGI [4] was over 100 µM, the TGI [5] was over 100 µM and the TGI [6] was over 100 µM. The TGI [7] was over 100 µM, the TGI [8] was over 100 µM and the TGI [9] was over 100 µM.
O=C(O)CN(CC(=O)O)Cc1cc2c(cc1O)Oc1cc(O)c(CN(CC(=O)O)CC(=O)O)cc1C21OC(=O)c2ccccc21 was tested, and the TGI [1] was over 100 µM, the TGI [2] was over 100 µM and the TGI [3] was over 100 µM. It also gave a TGI [5] of over 100 µM, a TGI [6] of over 100 µM and a TGI [7] of over 100 µM. It also gave a TGI [8] of over 100 µM, a TGI [9] of over 100 µM and a TGI [10] of over 100 µM.
With O=c1oc2c3ccc4ccccc4c3n(CCN3CCOCC3)c2c2ccccc12 the TGI [2] was over 100 µM, the TGI [3] was over 100 µM and the TGI [4] was over 100 µM. The TGI [5] was over 100 µM, the TGI [6] was over 100 µM and the TGI [10] was over 100 µM.
Work on CN(CCCCCl)P(=O)(OCc1ccc([N+](=O)[O-])o1)C(F)(F)c1ccc(CC(=O)N[C@@H](CC(=O)O)C(=O)N[C@@H](Cc2ccc(C(F)(F)P(=O)(OCc3ccc([N+](=O)[O-])o3)N(C)CCCCCl)cc2)C(N)=O)cc1 (some centres not stated) yielded a GI50 [1] of 50.8 µM, a TGI [1] of over 100 µM and a GI50 [2] of 24.5 µM. The TGI [2] was 56.7 µM, the GI50 [3] was over 100 µM and the TGI [3] was over 100 µM. The GI50 [4] was over 100 µM, the TGI [4] was over 100 µM and the GI50 [5] was over 100 µM. The TGI [5] was over 100 µM, the GI50 [7] was over 100 µM and the TGI [7] was over 100 µM. For the same compound, the GI50 [8] was 21.6 µM, the TGI [8] was 57.4 µM and the GI50 [9] was over 100 µM. The TGI [9] was over 100 µM, the GI50 [10] was over 100 µM and the TGI [10] was over 100 µM.
COc1ccc(C(=O)C(c2ccc(OC)cc2)C2C(=O)Oc3ccccc32)cc1 (configuration not stated) gave a GI50 [2] of over 100 µM, a TGI [2] of over 100 µM and a GI50 [3] of over 100 µM. For the same compound, the TGI [3] was over 100 µM, the GI50 [4] was over 100 µM and the TGI [4] was over 100 µM. It also gave a GI50 [5] of over 100 µM, a TGI [5] of over 100 µM and a GI50 [6] of over 100 µM. It also gave a TGI [6] of over 100 µM, a GI50 [7] of over 100 µM and a TGI [7] of over 100 µM. The GI50 [8] was over 100 µM, the TGI [8] was over 100 µM and the GI50 [9] was over 100 µM. The TGI [9] was over 100 µM, the GI50 [10] was over 100 µM and the TGI [10] was over 100 µM.
Work on CC1(C)CC(=O)C(C(c2cccc(O)c2O)C2C(=O)CC(C)(C)CC2=O)C(=O)C1 yielded a TGI [1] of over 100 µM, a TGI [3] of over 100 µM and a TGI [4] of over 100 µM. For the same compound, the TGI [5] was over 100 µM, the TGI [6] was over 100 µM and the TGI [7] was over 100 µM. It also gave a TGI [8] of over 100 µM, a TGI [9] of over 100 µM and a TGI [10] of over 100 µM.
With COc1cc(-c2cc(/C=C/C(=O)c3ccc4c(c3)OCO4)[nH]n2)cc(OC)c1OC the GI50 [1] was 2.01 µM, the TGI [1] was 5.45 µM and the GI50 [2] was 1.95 µM. It also gave a TGI [2] of 3.54 µM, a GI50 [3] of 1.88 µM and a TGI [3] of 3.71 µM. It also gave a GI50 [4] of 2.12 µM, a TGI [4] of 5.1 µM and a GI50 [5] of 2.46 µM. For the same compound, the TGI [5] was 40.3 µM, the GI50 [7] was 3.94 µM and the TGI [7] was over 100 µM. The GI50 [8] was 10.3 µM, the TGI [8] was 28.9 µM and the GI50 [9] was 3.31 µM. The TGI [9] was over 100 µM.
In the case of O=C(O)CNC(=O)c1ccccc1O, the TGI [1] is reported as over 100 µM, the TGI [3] is reported as over 100 µM and the TGI [4] is reported as over 100 µM. The TGI [5] was over 100 µM, the TGI [6] was over 100 µM and the TGI [7] was over 100 µM. It also gave a TGI [8] of over 100 µM, a TGI [9] of over 100 µM and a TGI [10] of over 100 µM.
In the case of C#CC[C@@H]1C[C@]2(C)[C@H]3CC[C@@H]4[C@H]5[C@H](C(=C)C)CC[C@]5(C(=O)O)CC[C@@]4(C)[C@]3(C)CC[C@H]2C(C)(C)[C@H]1O, the GI50 [1] is reported as 1.57 µM, the TGI [1] is reported as 3.03 µM and the GI50 [2] is reported as 4.44 µM. For the same compound, the TGI [2] was 38.5 µM, the GI50 [3] was 1.5 µM and the TGI [3] was 3.18 µM. It also gave a GI50 [4] of 1.62 µM, a TGI [4] of 3.18 µM and a GI50 [5] of 3.73 µM. It also gave a TGI [5] of 13.4 µM, a GI50 [7] of 2.98 µM and a TGI [7] of 11.6 µM. For the same compound, the GI50 [8] was 2.4 µM, the TGI [8] was 6.78 µM and the GI50 [9] was 2.05 µM. It also gave a TGI [9] of 6.56 µM, a GI50 [10] of 1.45 µM and a TGI [10] of 3.17 µM.
Compound COc1ccc2c(CC(=O)O)cc(=O)oc2c1 has a TGI [1] of over 100 µM, a TGI [2] of over 100 µM and a TGI [3] of over 100 µM. The TGI [4] was over 100 µM, the TGI [5] was over 100 µM and the TGI [6] was over 100 µM. For the same compound, the TGI [7] was over 100 µM, the TGI [9] was over 100 µM and the TGI [10] was over 100 µM.
Cc1cc2c(cc1C)N1Cc3c(ccc(C)c3C)N(C2)C1 (tested in a mixture with another compound) gave a TGI [1] of over 100 µM, a TGI [2] of over 100 µM and a TGI [4] of over 100 µM. The TGI [6] was over 100 µM, the TGI [9] was over 100 µM and the TGI [10] was over 100 µM.
CC(C)(C)C(=O)OCOP(=O)(OCOC(=O)C(C)(C)C)C1CCCN(OC(=O)c2ccccc2)C1=O (configuration not stated) showed a GI50 [1] of 0.919 µM, a TGI [1] of 10.5 µM and a GI50 [2] of 0.99 µM. The TGI [2] was 5.86 µM, the GI50 [3] was 0.666 µM and the TGI [3] was 11.7 µM. For the same compound, the GI50 [4] was 1.11 µM, the TGI [4] was 15.3 µM and the GI50 [5] was 3.43 µM. For the same compound, the TGI [5] was 22.4 µM, the GI50 [6] was 0.558 µM and the TGI [6] was 6.46 µM. For the same compound, the GI50 [7] was 0.337 µM, the TGI [7] was 7.19 µM and the GI50 [8] was 1.99 µM. For the same compound, the TGI [8] was 11.4 µM, the GI50 [9] was 1.34 µM and the TGI [9] was 19.5 µM.
O=c1cc2n(c(=O)[nH]1)C1OC(C(O)C1O)[C@H]2CCO (some centres not stated) gave a TGI [1] of over 100 µM, a TGI [3] of over 100 µM and a TGI [4] of over 100 µM. It also gave a TGI [5] of over 100 µM, a TGI [7] of over 100 µM and a TGI [8] of over 100 µM. It also gave a TGI [9] of over 100 µM and a TGI [10] of over 100 µM.
CC(=O)Oc1ccc2ccc(=O)oc2c1OC(C)=O was tested, and the TGI [1] was over 100 µM, the TGI [2] was over 100 µM and the TGI [3] was over 100 µM. For the same compound, the TGI [4] was over 100 µM, the TGI [5] was over 100 µM and the TGI [6] was over 100 µM. For the same compound, the TGI [7] was over 100 µM, the TGI [8] was over 100 µM and the TGI [10] was over 100 µM.
In the case of O=C(CCc1nnc(-c2c(Cl)cccc2Cl)o1)c1nc2ccccc2[nH]1, the GI50 [1] is reported as 10.9 µM, the TGI [1] is reported as 77.6 µM and the GI50 [2] is reported as 6.52 µM. The TGI [2] was 32.3 µM, the GI50 [3] was 11.9 µM and the TGI [3] was over 100 µM. The GI50 [4] was 4.99 µM, the TGI [4] was 28.6 µM and the GI50 [5] was 13.7 µM. The TGI [5] was 44.4 µM, the GI50 [6] was 3.33 µM and the TGI [6] was 13.5 µM. The GI50 [7] was 6.22 µM, the TGI [7] was 56.9 µM and the GI50 [9] was 6.66 µM. It also gave a TGI [9] of 31.2 µM, a GI50 [10] of 5.98 µM and a TGI [10] of 42.9 µM.
O=C(CC1(O)C(=O)Nc2c(Cl)cccc21)c1ccccc1 (configuration not stated) gave a TGI [1] of over 100 µM, a TGI [2] of over 100 µM and a TGI [3] of over 100 µM. The TGI [4] was over 100 µM, the TGI [5] was over 100 µM and the TGI [7] was over 100 µM. It also gave a TGI [8] of over 100 µM, a TGI [9] of over 100 µM and a TGI [10] of over 100 µM.
With CN(C)CCCNC(=O)c1cc(NC(=O)CCNC(=O)c2ccc3c(c2)C(=O)c2ccccc2C3=O)cn1C the GI50 [1] was 27.1 µM, the TGI [1] was over 100 µM and the GI50 [2] was 52.7 µM. The TGI [2] was over 100 µM, the GI50 [4] was over 100 µM and the TGI [4] was over 100 µM. The GI50 [5] was 21.8 µM, the TGI [5] was 95.5 µM and the GI50 [6] was over 100 µM. For the same compound, the TGI [6] was over 100 µM, the GI50 [7] was over 100 µM and the TGI [7] was over 100 µM. It also gave a GI50 [8] of over 100 µM, a TGI [8] of over 100 µM and a GI50 [9] of over 100 µM. For the same compound, the TGI [9] was over 100 µM, the GI50 [10] was over 100 µM and the TGI [10] was over 100 µM.
